Values of other authors in patent US5948887A, “Polypeptides that include conformation-constraining groups which flank a protein--protein interaction site” (Virginia Commonwealth University, priority 1997, dated 1999).
Where a SMILES comes first, the peptide text is derived from it.

System: receptors of sweet tasting papillae
Conditions: comparison value

COC(=O)[C@H](Cc1ccccc1)NC(=O)[C@@H](N)CC(=O)O [aspartame] (H-Asp-Phe-OMe)
times sweeter than sugar: 160 times
